# Assay results: US4371537A, “Sulfur-substituted phenoxypyridines having antiviral activity” (The Dow Chemical Company, priority 1981, dated 1983)
# Assays:
# [1] = Cytotoxicity in tissue culture testing (HeLa monolayers); format: cell-based; conditions: human; HeLa cells; observed at 48 and 72 hours post-treatment; read-out: Cytotoxicity: concentration of the compound found to be toxic to the cell
# Protocol: (§1) Monolayered HeLa cells in 16 millimeter (mm) tissue culture dishes were treated with 1 ml of culture medium (Eagles medium supplemented with fetal calf serum) containing subject compound at an appropriate concentration or containing no compound at all. Culture media such as those described herein are more fully described in standard texts, as for example, Kuchler's Biochemical Methods in Cell Culture and Virology, Dowden, Hutchinson and Ross, Inc., Stroudsberg, PA (1977). Following treatment, cells were challenged with 0.05 ml of rhinovirus type 1A (RV-1A), rhinovirus type 2 (RV-2) or Coxsackie A21 virus (Cox A21) in culture medium. Some of the compounds were also tested against rhinovirus type 5 (RV-5), rhinovirus type 8 (RV-8) or rhinovirus type 64 (RV-64). Cell controls received no viruses.
# ^1 Cytotoxicity figures represent the concentration of the compound, […]
# [2] = system: rhinovirus type 1A (RV-1A); assay: Tissue culture testing, rhinovirus type 1A in HeLa cells; format: cell-based; conditions: Enterovirus, 48 and 72 hours, NA = not active at the standard test conditions, read-out: RV-1A: lowest concentration of the compound necessary to cause a 50 percent reduction in cytopathic effect
# Protocol: as §1
# (§2) ^2 Lowest concentration of the compound (μg/ml) necessary to cause
# rhinovirus type 2 (RV-2) = assay: Tissue culture testing, rhinovirus type 2 in HeLa cells; format: cell-based; conditions: Enterovirus, 48 and 72 hours, NA = not active at the standard test conditions, read-out: RV-2: lowest concentration of the compound necessary to cause a 50 percent reduction in cytopathic effect
# Protocol: as §1, §2
# [3] = system: Coxsackie A21 virus (Cox A21); assay: Tissue culture testing, Coxsackie A21 virus in HeLa cells; format: cell-based; conditions: 48 and 72 hours, NA = not active at the standard test conditions, read-out: Cox A21: lowest concentration of the compound necessary to cause a 50 percent reduction in cytopathic effect
# Protocol: as §1, §2
# [4] = system: rhinovirus type 64 (RV-64); assay: Tissue culture testing, rhinovirus type 64 in HeLa cells; format: cell-based; conditions: Enterovirus, 48 and 72 hours, NA = not active at the standard test conditions, read-out: RV-64: lowest concentration of the compound necessary to cause a 50 percent reduction in cytopathic effect
# Protocol: as §1, §2
# Cox A21 = assay: Single Oral Dose test in mice challenged IP with Cox A21; format: in vivo, Swiss male mice; conditions: >3.84 significant (95% confidence level)
# Protocol: In addition, some of the compounds were tested in animals utilizing the following procedure, hereinafter referred to as the "Single Oral Dose" test. Swiss male mice, 8-12 grams in weight were challenged intraperitoneally (IP) with 0.2 ml of a normally lethal dose, i.e., a virus dose sufficient to cause […].80-100% mortality in infected animals within 10 days of challenge of Cox A21, in phosphate buffered saline containing 1% heat inactivated fetal calf serum. Three hours later mice were treated orally (P.O.) with 0.2 ml of compound suspended in 0.5% hydroxypropyl methylcellulose (Methocel) or with 0.2 ml of 0.5% Methocel containing no compound. […] Mice were observed daily for 7-10 days post-challenge and deaths recorded. A modified Mantel-Haenzel combined chi-square procedure was used to determine significant difference between virus control and treated groups. Chi-square values greater than 3.84 are considered significant (95% confidence level) in this test.
# Coxsackie A21 virus = assay: Continuous Oral Feeding test in mice challenged IP with Coxsackie A21 virus; format: in vivo; conditions: for Continuous Oral Feeding X^2 (chi-square, deaths vs control): 0.06 % in diet, 240 h
# Protocol: Some of the compounds were also tested in animals utilizing the following procedure, hereainafter referred to as the "Continuous Oral Feeding" test. Coxsackie A21 virus grown on HeLa cells was administered at a concentration that produces 80 to 100% deaths in mice weighing 8 to 12 grams within 10 days, when the mice are injected (IP) with 0.2 ml of virus preparation. Mice were placed on diets containing test compound dispersed in plain commercially available rodent mash chow at a concentration of 0.06% (weight percent) on day 0. On day 1 the mice were challenged with the virus preparation, 0.2 ml/mouse, (IP). Deaths in both control and experimental groups were recorded for the 10 days and the results analyzed by a chi-square (.chi.^2) test. Chi-square values greater than 3.84 indicate the compound is active (95% confidence level).
# [5] = 600 mg/kg P.O. 3 h after IP challenge
structure (smiles),measurement,setting,value
"CS(=O)(=O)c1ccc(Oc2ccc(SC(F)(F)F)cc2)nc1 [Example 27, 5-(methylsulfonyl)-2-(4-((trifluoromethyl)thio)phenoxy)pyridine]",MCC,[1],≥ 100 µg/mL
same,EC50,[2],12.5 µg/mL
same,EC50,rhinovirus type 2 (RV-2),< 6.25 µg/mL
same,EC50,[3],< 6.25 µg/mL
same,EC50,[4],< 6.25 µg/mL
same,"Single Oral Dose X^2 (chi-square, deaths vs virus control)",Cox A21; [5],39.700
same,"Continuous Oral Feeding X^2 (chi-square, deaths vs control)",Coxsackie A21 virus,29.753
"CS(=O)(=O)c1ccc(Oc2cccc(Br)c2)nc1 [Example 35, 2-(3-bromophenoxy)-5-(methylsulfonyl)pyridine]",MCC,[1],> 100 µg/mL
same,EC50,[2],< 6.25 µg/mL
same,EC50,rhinovirus type 2 (RV-2),12.5 µg/mL
same,EC50,[3],50 µg/mL
same,EC50,[4],6.25 µg/mL
same,"Single Oral Dose X^2 (chi-square, deaths vs virus control)",Cox A21; [5],1.604
same,"Continuous Oral Feeding X^2 (chi-square, deaths vs control)",Coxsackie A21 virus,0.197
"CS(=O)(=O)c1ccc(Oc2cccc(C#N)c2)nc1 [Example 36, 3-((5-(methylsulfonyl)-2-pyridinyl)oxy)benzonitrile]",MCC,[1],> 100 µg/mL
same,EC50,[2],12.5 µg/mL
same,EC50,rhinovirus type 2 (RV-2),50 µg/mL
same,EC50,[3],50 µg/mL
same,EC50,[4],50 µg/mL
same,"Single Oral Dose X^2 (chi-square, deaths vs virus control)",Cox A21; [5],2.20
same,"Continuous Oral Feeding X^2 (chi-square, deaths vs control)",Coxsackie A21 virus,3.447
"CSc1ccc(Oc2ccc(Cl)c(Cl)c2)nc1 [Example 38, 2-(3,4-dichlorophenoxy)-5-(methylthio)pyridine]",MCC,[1],25 µg/mL
same,EC50,[2],1.25 µg/mL
same,EC50,rhinovirus type 2 (RV-2),2.5 µg/mL
same,EC50,[3],2.5 µg/mL
same,"Single Oral Dose X^2 (chi-square, deaths vs virus control)",Cox A21; [5],25.233
"C[S+]([O-])c1ccc(Oc2ccc(Cl)c(Cl)c2)nc1 (stereo not drawn) [Example 39, 2-(3,4-dichlorophenoxy)-5-(methylsulfinyl)pyridine]",MCC,[1],25 µg/mL
same,EC50,[2],0.625 µg/mL
same,EC50,rhinovirus type 2 (RV-2),1.25 µg/mL
same,EC50,[3],25 µg/mL
same,EC50,[4],1.25 µg/mL
"CCSc1ccc(Oc2ccc(Cl)c(Cl)c2)nc1 [Example 45, 2-(3,4-dichlorophenoxy)-5-(ethylthio)pyridine]",MCC,[1],12.5 µg/mL
same,EC50,[2],2.5 µg/mL
same,EC50,rhinovirus type 2 (RV-2),2.5 µg/mL
same,EC50,[3],3.12 µg/mL
same,EC50,[4],5 µg/mL
"CC[S+]([O-])c1ccc(Oc2ccc(Cl)c(Cl)c2)nc1 (stereo not drawn) [Example 46, 2-(3,4-dichlorophenoxy)-5-(ethylsulfinyl)pyridine]",MCC,[1],12.5 µg/mL
same,EC50,[2],< 3.12 µg/mL
same,EC50,rhinovirus type 2 (RV-2),< 3.12 µg/mL
same,EC50,[3],12.5 µg/mL
same,EC50,[4],5 µg/mL
"CC(C)S(=O)(=O)c1ccc(Oc2ccc(Cl)c(Cl)c2)nc1 [Example 49, 2-(3,4-dichlorophenoxy)-5-((1-methylethyl)sulfonyl)pyridine]",MCC,[1],12.5 µg/mL
same,EC50,[2],< 0.312 µg/mL
same,EC50,rhinovirus type 2 (RV-2),0.625 µg/mL
same,EC50,[3],0.625 µg/mL
same,EC50,[4],0.625 µg/mL
same,"Single Oral Dose X^2 (chi-square, deaths vs virus control)",Cox A21; 400 mg/kg P.O. 3 h after IP challenge,0.004
same,"Continuous Oral Feeding X^2 (chi-square, deaths vs control)",Coxsackie A21 virus,3.851
"CC(C)S(=O)(=O)c1ccc(Oc2ccc(Br)cc2)nc1 [Example 50, 2-(4-bromophenoxy)-5-((1-methylethyl)sulfonyl)pyridine]",MCC,[1],12.5 µg/mL
same,EC50,[2],1.25 µg/mL
same,EC50,rhinovirus type 2 (RV-2),1.25 µg/mL
same,EC50,[3],1.25 µg/mL
same,EC50,[4],2.5 µg/mL
same,"Single Oral Dose X^2 (chi-square, deaths vs virus control)",Cox A21; [5],10.040
same,"Continuous Oral Feeding X^2 (chi-square, deaths vs control)",Coxsackie A21 virus,1.243
"CCCCCCS(=O)(=O)c1ccc(Oc2ccc(C(=O)c3ccccc3)cc2)nc1 [Example 55, (4-((5-(n-hexylsulfonyl)-2-pyridinyl)oxy)phenyl)phenylmethanone]",MCC,[1],12.5 µg/mL
same,EC50,[2],3.12 µg/mL
same,EC50,rhinovirus type 2 (RV-2),12.5 µg/mL
same,EC50,[3],3.12 µg/mL
same,"Single Oral Dose X^2 (chi-square, deaths vs virus control)",Cox A21; [5],0.190
"O=S(=O)(c1ccccc1)c1ccc(Oc2ccc(Cl)c(Cl)c2)nc1 [Example 60, 2-(3,4-dichlorophenoxy)-5-(phenylsulfonyl)pyridine]",MCC,[1],≥ 100 µg/mL
same,EC50,[2],5 µg/mL
same,EC50,rhinovirus type 2 (RV-2),10 µg/mL
same,EC50,[3],10 µg/mL
same,"Single Oral Dose X^2 (chi-square, deaths vs virus control)",Cox A21; [5],0.839
same,"Continuous Oral Feeding X^2 (chi-square, deaths vs control)",Coxsackie A21 virus,0.970
"O=S(=O)(c1ccccc1)c1ccc(Oc2ccc(Br)cc2)nc1 [Example 61, 2-(4-bromophenoxy)-5-(phenylsulfonyl)pyridine]",MCC,[1],20 µg/mL
same,EC50,[2],10 µg/mL
same,EC50,rhinovirus type 2 (RV-2),10 µg/mL
same,EC50,[3],5 µg/mL
same,"Single Oral Dose X^2 (chi-square, deaths vs virus control)",Cox A21; [5],4.401
same,"Continuous Oral Feeding X^2 (chi-square, deaths vs control)",Coxsackie A21 virus,3.328
"O=S(=O)(Cc1ccccc1)c1ccc(Oc2ccc(Cl)c(Cl)c2)nc1 [Example 63, 2-(3,4-dichlorophenoxy)-5-((phenylmethyl)sulfonyl)pyridine]",MCC,[1],25 µg/mL
same,EC50,[2],5 µg/mL
same,EC50,rhinovirus type 2 (RV-2),10 µg/mL
same,EC50,[3],10 µg/mL
same,"Single Oral Dose X^2 (chi-square, deaths vs virus control)",Cox A21; [5],0.733
same,"Continuous Oral Feeding X^2 (chi-square, deaths vs control)",Coxsackie A21 virus,4.106
"O=S(=O)(Cc1ccccc1)c1ccc(Oc2ccc(Br)cc2)nc1 [Example 64, 2-(4-bromophenoxy)-5-((phenylmethyl)sulfonyl)pyridine]",MCC,[1],≥ 100 µg/mL
same,EC50,rhinovirus type 2 (RV-2),50 µg/mL
same,"Single Oral Dose X^2 (chi-square, deaths vs virus control)",Cox A21; [5],0.483
same,"Continuous Oral Feeding X^2 (chi-square, deaths vs control)",Coxsackie A21 virus,2.985
"CS(=O)(=O)c1cccc(Oc2ccc(Cl)c(Cl)c2)n1 [Example 67, 2-(3,4-dichlorophenoxy)-6-(methylsulfonyl)pyridine]",MCC,[1],50 µg/mL
same,EC50,[2],3.12 µg/mL
same,EC50,rhinovirus type 2 (RV-2),12.5 µg/mL
same,EC50,[3],~50 µg/mL
same,Continuous Oral Feeding: toxicity of the test compound at the indicated dosage,"Coxsackie A21 virus; 0.06% in diet, ""toxic"" = significantly toxic at the indicated dosage",toxic
same,"Continuous Oral Feeding X^2 (chi-square, deaths vs control)",Coxsackie A21 virus,7.39
CS(=O)(=O)c1cccc(Oc2ccc(C(=O)c3ccccc3)cc2)n1 [Example 68],MCC,[1],12.5 µg/mL
same,EC50,[2],6.25 µg/mL
same,EC50,rhinovirus type 2 (RV-2),6.25 µg/mL
same,EC50,[3],6.25 µg/mL
same,"Single Oral Dose X^2 (chi-square, deaths vs virus control)",Cox A21; [5],0.362
same,"Continuous Oral Feeding X^2 (chi-square, deaths vs control)",Coxsackie A21 virus,0.680
"CS(=O)(=O)c1cccc(Oc2ccc(Cc3ccccc3)cc2)n1 [Example 69, 2-(methylsulfonyl)-6-(4-(phenylmethyl)phenoxy)pyridine]",MCC,[1],5 µg/mL
same,EC50,[2],0.625 µg/mL
same,EC50,rhinovirus type 2 (RV-2),2.5 µg/mL
same,"Single Oral Dose X^2 (chi-square, deaths vs virus control)",Cox A21; [5],3.510
same,"Continuous Oral Feeding X^2 (chi-square, deaths vs control)",Coxsackie A21 virus,0.776
